{"source": "paper PMC2875737", "about": "“Determination of drug-like properties of a novel antileishmanial compound: In vitro absorption, distribution, metabolism, and excretion studies” (Indian Journal of Pharmacology, 2009)", "key": {"Leishmania donovani [1]": {"tested_on": "Leishmania donovani", "settings": "cited from earlier work"}, "human plasma protein": {"tested_on": "human plasma protein", "set-up": "method as in PMID 14567798, PMID 11841071", "settings": "cited from earlier work"}, "[2]": {"assay": "Plasma protein binding by equilibrium dialysis", "settings": "human", "protocol": "The binding of compound to human plasma was determined using equilibrium dialysis with 6-hour incubation with constant shaking at 37°C as per the method described by Kaplita and Liu.[4] The initial concentration of the compound used was 10 μM (DMSO ≤1%). Quantitations were done by HPLC."}, "[3]": {"set-up": "method as in PMID 14567798, PMID 11841071", "settings": "PBS pH 7.4; cited from earlier work"}, "physchem": {"assay": "physchem", "settings": "for solubility at 2 h: 25 °C, pH 7.4, aqueous buffer, kinetic from dmso stock", "protocol": "A 4 μl of 25 mM stock (DMSO) of S-4 was diluted to 200 μl with PBS (pH 7.4) and incubated at 25°C for 2 hours with constant shaking. The undissolved compound, if any, was filtered through the PVDF membrane filter (Millipore, MA). To 120 μl of the filtrate, 80 μl of acetonitrile was added and mixed thoroughly. The concentration of S-4 in the filtrate was determined spectrophotometrically from linearity (5-400μM) of the compound prepared in PBS containing 40% acetonitrile. The observed solubility result was multiplied by 200/120 to account for the acetonitrile addition in the test filtrate."}, "[4]": {"settings": "cited from earlier work"}, "[5]": {"assay": "Distribution coefficient Log D in cyclohexane/PBS pH 7.4", "format": "physicochemical", "settings": "PBS pH 7.4, average of three experiments", "protocol": "Log D in cyclohexane/PBS was performed following the similar method as done for Log D in octanol/PBS. Here, 5 mM compound stock was used to prevent precipitation problem with this system and volumes of cyclohexane were 150, 200, 400, and 800 μl."}, "[6]": {"settings": "PAMPA standards; cited from earlier work"}, "[7]": {"assay": "Distribution coefficient (Log D) in octanol/PBS pH 7.4"}, "[8]": {"set-up": "method as in PMID 14567798, PMID 11841071", "settings": "cited from earlier work"}, "[9]": {"assay": "Chemical stability in PBS pH 7.4, simulated gastric fluid and simulated intestinal fluid", "format": "physicochemical", "protocol": "A 100-μM solution of S-4 was prepared in phosphate buffered saline (PBS), pH 7.4, from a stock of 25 mM in DMSO and was kept at 25°C for 24 hours. Percentage stability was determined based on chromatographic peak area of the sample kept for 24 hours and that of 0 hour (freshly prepared and injected) sample. All the samples were prepared in triplicate.\nSimilar studies were carried out at 37°C replacing PBS with simulated gastric fluid (SGF) and simulated intestinal fluid (SIF) which were prepared following United States Pharmacopoeia, and stability was checked for upto 2 hours for SGF and 4 hours for SIF."}, "rat liver microsomes": {"tested_on": "rat liver microsomes", "assay": "Metabolism by liver microsomal enzymes", "format": "in vitro ADME", "settings": "rat liver microsomes 0.5 mg protein/ml, 10 μM, 1 hour, 37°C, NADPH regeneration system; ± SEM", "protocol": "Ethical clearance was obtained from Animal Ethics Committee of Indian Institute of Chemical Biology for use of animals for the present study. […] The % stability (% compound remaining after metabolism) was calculated as follows:\n(3) % Compound remaining=100×(peak area of 1 hour sampl/peak area of 0 hour sample)\nFor 0 hour sample, the compound was added after addition of ice-cold acetonitrile and then vortexed, followed by centrifugation as mentioned above."}, "Leishmania donovani [10]": {"tested_on": "Leishmania donovani", "set-up": "method as in ref 11, 12 = [11]; PMID 11937327; doi:10.1016/s0968-0896(02)00046-9; 11 Sahu NP Pal C Mandal NB Banerjee S Raha M Kundu AP Synthesis of a novel quinoline derivative, 2-(2-Methylquinolin-4ylamino)-N-phenylacetamide: A potential antileishmanial agent Bioorg Med Chem 2002 || [12]; 12 Sahu NP Mondal NB Banerjee S Raha R Chakraborti G Basu A Indian patent No. 191818 2004", "settings": "cited from earlier work"}, "[11]": {"assay": "Parallel artificial membrane permeability assay (PAMPA)", "format": "in vitro ADME", "protocol": "Millipore acceptor and donor plate (Cat No: MAPB310 and MASSACCEPTOR) were used in the study. […] Incubation was carried out for 16 hours at room temperature in a water-saturated chamber to avoid evaporation from donor wells. […] To a 200 μl acceptor sample, a 100 μl donor solution was added, mixed properly, and this mixture was termed as “equilibrium.” The absorbance of the equilibrium was also determined. Five standard compounds of different permeability (high: […] (1) Calculation: […] where C = (VD × VA)/[(VD + VA)× Area (cm^2) × porosity × time (seconds)] Where VD = volume of donor (ml), VA = volume of acceptor (ml). A linear graph was plotted with observed and reported values for the standard drugs. The experimental method was considered valid for permeability ranking if linear correlation coefficient (R^2) was more than 0.95."}, "[12]": {"set-up": "method as in ref 11 = [11]; PMID 11937327; doi:10.1016/s0968-0896(02)00046-9; 11 Sahu NP Pal C Mandal NB Banerjee S Raha M Kundu AP Synthesis of a novel quinoline derivative, 2-(2-Methylquinolin-4ylamino)-N-phenylacetamide: A potential antileishmanial agent Bioorg Med Chem 2002", "settings": "cited from earlier work"}, "[13]": {"settings": "simulated gastric fluid (SGF), 37°C, 2 hours"}, "[14]": {"settings": "simulated intestinal fluid (SIF), 37°C, 4 hours"}}, "note": "Where “and” joins values, the source holds several entries; their conditions need not be identical. Identical values can stand only once. Counter-ions that a name gives are not always drawn."}
{"smiles": "O=C(Nc1ccccc1Cc1nc2ccccc2cc1-c1c[nH]c2ccccc12)C(Cl)Cl", "note": "[2-(2′′-dichloroacetamidobenzyl)-3-(3′-indoyl)-quinoline]", "values": [{"measurement": "Antileishmanial activity", "setting": "Leishmania donovani [1]", "value": "significant antileishmanial activity"}]}
{"smiles": "Cn1c(=O)c2c(ncn2C)n(C)c1=O", "note": "[Caffeine]", "values": [{"measurement": "Percentage of plasma protein binding, reported value", "setting": "human plasma protein", "value": "29-43%"}, {"measurement": "fraction unbound at 6 h, 10 μM", "setting": "[2]", "value": 0.593}]}
{"smiles": "O=C(O)Cc1ccccc1Nc1c(Cl)cccc1Cl", "note": "[Diclofenac Sodium]", "values": [{"measurement": "Solubility, reported value", "setting": "[3]", "value": "> 400", "unit": "µM"}, {"measurement": "solubility at 2 h", "setting": "physchem", "value": "> 400", "unit": "µM"}]}
{"smiles": "CC/C(=C(/CC)c1ccc(O)cc1)c1ccc(O)cc1", "note": "[Diethylstilbesterol]", "values": [{"measurement": "Solubility, reported value", "setting": "[3]", "value": "5 to 20", "unit": "µM"}, {"measurement": "Solubility", "setting": "physchem; pH 7.4", "value": "18.94 ± 1.00", "unit": "µM"}]}
{"smiles": "O=C(CCCN1CCC(O)(c2ccc(Cl)cc2)CC1)c1ccc(F)cc1", "note": "[Haloperidol]", "values": [{"measurement": "Solubility, reported value", "setting": "[3]", "value": "40 to 63", "unit": "µM"}, {"measurement": "solubility at 2 h", "setting": "physchem", "value": "48.5 ± 3.21", "unit": "µM"}, {"measurement": "Log D cyclohexane/PBS, reported value", "setting": "[4]", "value": 0.46}, {"measurement": "logD hydrocarbon water", "setting": "[5]; cyclohexane/PBS", "value": 0.52}]}
{"smiles": "CN(Cc1cnc2nc(N)nc(N)c2n1)c1ccc(C(=O)N[C@@H](CCC(=O)O)C(=O)O)cc1", "note": "[Methotrexate]", "values": [{"measurement": "Permeability ranking of standard compounds", "setting": "[6]", "value": "very low"}, {"measurement": "Percentage of plasma protein binding, reported value", "setting": "human plasma protein", "value": "35-57%"}, {"measurement": "fraction unbound at 6 h, 10 μM", "setting": "[2]", "value": 0.493}]}
{"smiles": "COCCc1ccc(OCC(O)CNC(C)C)cc1", "note": "(centres unmarked) [Metoprolol tartrate]", "values": [{"measurement": "logD", "setting": "[7]", "value": -0.25}, {"measurement": "Log D octanol/PBS, reported value", "setting": "[8]", "value": "−0.30"}]}
{"smiles": "CC(C)NCC(O)COc1cccc2ccccc12.Cl", "note": "(centres unmarked) [Propranolol HCl]", "values": [{"measurement": "Permeability ranking of standard compounds", "setting": "[6]", "value": "high"}, {"measurement": "Percentage of plasma protein binding, reported value", "setting": "human plasma protein", "value": "80-93%"}]}
{"smiles": "CNC(=C[N+](=O)[O-])NCCSCc1ccc(CN(C)C)o1", "note": "[Ranitidine HCl]", "values": [{"measurement": "Percentage of plasma protein binding, reported value", "setting": "human plasma protein", "value": "10-19%"}, {"measurement": "fraction unbound at 6 h, 10 μM", "setting": "[2]; plasma", "value": 0.852}]}
{"smiles": "Cc1cc(NCC(=O)Nc2ccccc2)c2ccccc2n1", "note": "[S-4, 2-(2-methylquinolin-4-ylamino)-N-phenylacetamide]", "values": [{"measurement": "logD", "setting": "[7]", "value": 0.54}, {"measurement": "Stability (% remaining)", "setting": "[9]; 100 μM in PBS pH 7.4, 25°C, 24 hours, HPLC", "value": "99.16 ± 1.32", "unit": "%"}, {"measurement": "remaining at 24 h, 100 μM", "setting": "[9]; phosphate buffered saline, pH 7.4, 100 μM in PBS pH 7.4, 25°C, 24 hours, HPLC", "value": "> 95", "unit": "%"}, {"measurement": "Stability (% remaining)", "setting": "[9]; [13]", "value": "101.19± 0.76", "unit": "%"}, {"measurement": "remaining at 2 h, 100 μM", "setting": "[9]; [13]", "value": "> 95", "unit": "%"}, {"measurement": "Stability (% remaining)", "setting": "[9]; [14]", "value": "97.70 ± 0.15", "unit": "%"}, {"measurement": "remaining at 4 h, 100 μM", "setting": "[9]; [14]", "value": "> 95", "unit": "%"}, {"measurement": "solubility at 2 h", "setting": "physchem; PBS", "value": "300 ± 6.42", "unit": "µM"}, {"measurement": "% Parent compound remaining, result", "setting": "rat liver microsomes", "value": "36.07% and 36.07 ± 4.15%"}, {"measurement": "Reduction of parasite burden in spleen and liver compared with sodium antimony gluconate", "setting": "Leishmania donovani [10]", "value": "significantly more effective than sodium antimony gluconate"}, {"measurement": "Papp at 16 h, 250 μM", "setting": "[11]; PBS pH 7.4 (5% DMSO), 16 hours, room temperature, ± SEM, read-out: Log Pe (converted)", "value": 2.95, "unit": "×10⁻⁶ cm/s"}, {"measurement": "Permeability ranking", "setting": "[11]; ranking against standard drugs", "value": "medium"}, {"measurement": "fraction unbound at 6 h, 10 μM", "setting": "[2]", "value": 0.212}, {"measurement": "Toxicity to different organs", "setting": "[12]", "value": "no alarming sign to different organs tested"}, {"measurement": "logD hydrocarbon water", "setting": "[5]; cyclohexane/PBS", "value": -1.33}]}
{"smiles": "CC(=O)CC(c1ccccc1)c1c(O)c2ccccc2oc1=O", "note": "(centres unmarked) [Warfarin]", "values": [{"measurement": "Permeability ranking of standard compounds", "setting": "[6]", "value": "medium"}, {"measurement": "Percentage of plasma protein binding, reported value", "setting": "human plasma protein", "value": 99, "unit": "%"}, {"measurement": "fraction unbound at 6 h, 10 μM", "setting": "[2]; plasma", "value": 0.0179}, {"measurement": "Log D cyclohexane/PBS, reported value", "setting": "[4]", "value": "−1.31"}, {"measurement": "logD hydrocarbon water", "setting": "[5]", "value": -1.28}]}
{"smiles": "NC(=O)N1c2ccccc2C=Cc2ccccc21", "note": "[carbamazepine]", "values": [{"measurement": "Permeability ranking of standard compounds", "setting": "[6]", "value": "high"}]}
